From ChEMBL document CHEMBL1145419, “Structural insight into the pharmacophore pocket of human glutamate carboxypeptidase II” (J Med Chem, 2007)

Target: Glutamate carboxypeptidase 2 (Homo sapiens, UniProt Q04609)
Sequence (Q04609 whole entry): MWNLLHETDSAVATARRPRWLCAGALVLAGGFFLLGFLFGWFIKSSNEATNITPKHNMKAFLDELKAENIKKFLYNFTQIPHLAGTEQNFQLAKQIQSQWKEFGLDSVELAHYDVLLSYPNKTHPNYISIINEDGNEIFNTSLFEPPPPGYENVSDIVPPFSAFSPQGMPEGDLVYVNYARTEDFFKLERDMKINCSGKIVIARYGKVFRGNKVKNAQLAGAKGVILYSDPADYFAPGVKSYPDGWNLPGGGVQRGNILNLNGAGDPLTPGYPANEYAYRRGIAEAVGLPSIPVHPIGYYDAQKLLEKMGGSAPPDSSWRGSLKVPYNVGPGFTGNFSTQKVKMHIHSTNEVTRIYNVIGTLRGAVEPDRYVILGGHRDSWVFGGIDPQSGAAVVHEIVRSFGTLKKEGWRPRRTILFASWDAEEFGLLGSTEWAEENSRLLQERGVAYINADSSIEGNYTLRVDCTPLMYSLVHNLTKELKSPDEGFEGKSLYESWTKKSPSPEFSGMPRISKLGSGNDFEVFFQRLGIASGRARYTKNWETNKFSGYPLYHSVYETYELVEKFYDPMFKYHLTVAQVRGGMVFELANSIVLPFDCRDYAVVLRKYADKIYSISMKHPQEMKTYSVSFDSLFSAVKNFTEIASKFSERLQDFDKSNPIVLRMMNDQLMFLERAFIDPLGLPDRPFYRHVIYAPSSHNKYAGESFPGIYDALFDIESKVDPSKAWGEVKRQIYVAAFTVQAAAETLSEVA
Description: Inhibition of human recombinant glutamate carboxypeptidase 2 by radioenzymatic assay

SMILES	IC50 [µM]
N[C@@H](CCC(=O)O)C(=O)O [GLUTAMIC ACID]	428
N[C@@H](Cn1ccc(=O)[nH]c1=O)C(=O)O [(S)-WILLARDIINE]	67
N[C@@H](COP(=O)(O)O)C(=O)O [DEXFOSFOSERINE]	523
N[C@@H](Cn1oc(=O)[nH]c1=O)C(=O)O [QUISQUALATE]	9.5
